molecular target: T1, human PTHR1 receptor (Homo sapiens, UniProt Q03431); assay: Competitive antagonist binding assay for hPTH-R1 (radioactive competition binding, SPA beads); settings: human PTHR1 membranes, [125I]-[Nle8,18,Tyr34]-PTH(1-34) 0.2 nM, 90 minutes at room temperature; read-out: hPTHR1 Ki
T1 construct: purchased Eurofins HTS030M
T1 sequence (Q03431 27-593): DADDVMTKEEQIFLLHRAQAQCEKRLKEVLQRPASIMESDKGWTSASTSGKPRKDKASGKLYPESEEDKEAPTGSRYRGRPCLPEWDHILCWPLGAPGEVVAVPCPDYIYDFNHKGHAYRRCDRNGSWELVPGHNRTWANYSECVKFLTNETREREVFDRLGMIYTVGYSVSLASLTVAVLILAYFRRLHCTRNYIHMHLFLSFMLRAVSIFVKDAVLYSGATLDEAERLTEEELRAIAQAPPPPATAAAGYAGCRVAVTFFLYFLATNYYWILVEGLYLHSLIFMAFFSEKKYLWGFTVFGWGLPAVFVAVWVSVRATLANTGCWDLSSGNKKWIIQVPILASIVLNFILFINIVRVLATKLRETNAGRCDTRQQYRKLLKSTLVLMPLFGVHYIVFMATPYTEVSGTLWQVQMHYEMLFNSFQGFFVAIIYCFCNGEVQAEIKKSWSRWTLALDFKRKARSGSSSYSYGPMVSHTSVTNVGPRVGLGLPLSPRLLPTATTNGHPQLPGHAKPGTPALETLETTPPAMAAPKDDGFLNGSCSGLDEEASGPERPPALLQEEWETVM
How it was run: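 Human PTHR1 membranes on SPA beads incubated 90 min at room temperature with compound (typically 0-10,000 nM final) and 0.2 nM [125I]-[Nle8,18,Tyr34]-PTH(1-34) in HEPES buffer with MgCl2, CaCl2, BSA, Triton X-100 and protease inhibitors, pH 7.4. Scintillation signal read; Ki values derived.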

SMILES | Ki [µM]
CN1C(=O)N(c2c(F)cc(NCCNCCO)cc2F)c2cc(C#N)cc(F)c2-c2cc(F)cnc21 [1-110, 10-[2,6-difluoro-4-({2-[(2-hydroxyethyl)amino]ethyl}amino)phenyl]-4,15-difluoro-8-methyl-9-oxo-6,8,10-triazatricyclo[9.4.0.0^2,7]pentadeca-1(11),2(7),3,5,12,14-hexaene-13-carbonitrile] | < 0.1
CNCCNc1cc(F)c(N2C(=O)N(C)c3ncc(F)cc3-c3c(C)cc(C#N)cc32)c(F)c1 [1-111, 10-(2,6-difluoro-4-{[2-(methylamino)ethyl]amino}phenyl)-4-fluoro-8,15-dimethyl-9-oxo-6,8,10-triazatricyclo[9.4.0.0^2,7]pentadeca-1(11),2(7),3,5,12,14-hexaene-13-carbonitrile] | < 0.1
Cc1cc(C#N)cc2c1-c1cc(F)cnc1N(C)C(=O)N2c1c(F)cc(NCCNCCO)cc1F [1-112, 10-[2,6-difluoro-4-({2-[(2-hydroxyethyl)amino]ethyl}amino)phenyl]-4-fluoro-8,15-dimethyl-9-oxo-6,8,10-triazatricyclo[9.4.0.0^2,7]pentadeca-1(11),2(7),3,5,12,14-hexaene-13-carbonitrile] | < 0.1
CNCCNc1cc(F)c(N2C(=O)N(C(C)C)c3ncc(F)cc3-c3c(F)cc(Cl)cc32)c(F)c1 [1-113, 13-chloro-10-(2,6-difluoro-4-{[2-(methylamino)ethyl]amino}phenyl)-4,15-difluoro-8-(propan-2-yl)-6,8,10-triazatricyclo[9.4.0.0^2,7]pentadeca-1(11),2(7),3,5,12,14-hexaen-9-one] | < 0.1
CC(C)N1C(=O)N(c2c(F)cc(NCCNCCO)cc2F)c2cc(Cl)cc(F)c2-c2cc(F)cnc21 [1-114, 13-chloro-10-[2,6-difluoro-4-({2-[(2-hydroxyethyl)amino]ethyl}amino)phenyl]-4,15-difluoro-8-(propan-2-yl)-6,8,10-triazatricyclo[9.4.0.0^2,7]pentadeca-1(11),2(7),3,5,12,14-hexaen-9-one] | < 0.1
CNCCNc1cc(F)c(N2C(=O)N(C)c3ncc(Cl)cc3-c3c(F)cc(C#N)cc32)c(F)c1 [1-115, 4-chloro-10-(2,6-difluoro-4-{[2-(methylamino)ethyl]amino}phenyl)-15-fluoro-8-methyl-9-oxo-6,8,10-triazatricyclo[9.4.0.0^2,7]pentadeca-1(11),2(7),3,5,12,14-hexaene-13-carbonitrile] | < 0.1
CN1C(=O)N(c2c(F)cc(NCCNCCO)cc2F)c2cc(C#N)cc(F)c2-c2cc(Cl)cnc21 [1-116, 4-chloro-10-[2,6-difluoro-4-({2-[(2-hydroxyethyl)amino]ethyl}amino)phenyl]-15-fluoro-8-methyl-9-oxo-6,8,10-triazatricyclo[9.4.0.0^2,7]pentadeca-1(11),2(7),3,5,12,14-hexaene-13-carbonitrile] | < 0.1
CCCN1C(=O)N(c2c(F)cc(NCCNC)cc2F)c2cc(C#N)ccc2-c2cc(F)cnc21 [1-117, 10-(2,6-difluoro-4-{[2-(methylamino)ethyl]amino}phenyl)-4-fluoro-9-oxo-8-propyl-6,8,10-triazatricyclo[9.4.0.0^2,7]pentadeca-1(11),2(7),3,5,12,14-hexaene-13-carbonitrile] | < 0.1
CCCN1C(=O)N(c2c(F)cc(NCCNCCO)cc2F)c2cc(C#N)ccc2-c2cc(F)cnc21 [1-118, 10-[2,6-difluoro-4-({2-[(2-hydroxyethyl)amino]ethyl}amino)phenyl]-4-fluoro-9-oxo-8-propyl-6,8,10-triazatricyclo[9.4.0.0^2,7]pentadeca-1(11),2(7),3,5,12,14-hexaene-13-carbonitrile] | < 0.1
CCCN1C(=O)N(c2c(F)cc(NCCNC)cc2F)c2cc(C#N)ccc2-c2cc(Cl)cnc21 [1-119, 4-chloro-10-(2,6-difluoro-4-{[2-(methylamino)ethyl]amino}phenyl)-9-oxo-8-propyl-6,8,10-triazatricyclo[9.4.0.0^2,7]pentadeca-1(11),2(7),3,5,12,14-hexaene-13-carbonitrile] | < 0.1
CCCN1C(=O)N(c2c(F)cc(NCCNCCO)cc2F)c2cc(C#N)ccc2-c2cc(Cl)cnc21 [1-120, 4-chloro-10-[2,6-difluoro-4-({2-[(2-hydroxyethyl)amino]ethyl}amino)phenyl]-9-oxo-8-propyl-6,8,10-triazatricyclo[9.4.0.0^2,7]pentadeca-1(11),2(7),3,5,12,14-hexaene-13-carbonitrile] | < 0.1
CNCCNc1cc(F)c(N2C(=O)N(CCO)c3ncc(F)cc3-c3ccc(C#N)cc32)c(F)c1 [1-121, 10-(2,6-difluoro-4-{[2-(methylamino)ethyl]amino}phenyl)-4-fluoro-8-(2-hydroxyethyl)-9-oxo-6,8,10-triazatricyclo[9.4.0.0^2,7]pentadeca-1(11),2(7),3,5,12,14-hexaene-13-carbonitrile] | 0.1 to 1
CNCCNc1cc(F)c(N2C(=O)N(CCOC)c3ncc(F)cc3-c3ccc(C#N)cc32)c(F)c1 [1-122, 10-(2,6-difluoro-4-{[2-(methylamino)ethyl]amino}phenyl)-4-fluoro-8-(2-methoxyethyl)-9-oxo-6,8,10-triazatricyclo[9.4.0.0^2,7]pentadeca-1(11),2(7),3,5,12,14-hexaene-13-carbonitrile] | < 0.1
CCN1C(=O)N(c2c(F)cc(N3CC(CN)C3)cc2F)c2cc(C#N)ccc2-c2cc(F)cnc21 [1-123, 10-{4-[3-(aminomethyl)azetidin-1-yl]-2,6-difluorophenyl}-8-ethyl-4-fluoro-9-oxo-6,8,10-triazatricyclo[9.4.0.0^2,7]pentadeca-1(11),2(7),3,5,12,14-hexaene-13-carbonitrile] | < 0.1
CCN1C(=O)N(c2c(F)cc(N3CC(NCCO)C3)cc2F)c2cc(C#N)ccc2-c2cc(F)cnc21 [1-124, 10-(2,6-difluoro-4-{3-[(2-hydroxyethyl)amino]azetidin-1-yl}phenyl)-8-ethyl-4-fluoro-9-oxo-6,8,10-triazatricyclo[9.4.0.0^2,7]pentadeca-1(11),2(7),3,5,12,14-hexaene-13-carbonitrile] | 0.1 to 1
CCCN1C(=O)N(c2c(F)cc(NCCNCCO)cc2F)c2cc(C#N)cc(F)c2-c2cc(F)cnc21 [1-125, 10-[2,6-difluoro-4-({2-[(2-hydroxyethyl)amino]ethyl}amino)phenyl]-4,15-difluoro-9-oxo-8-propyl-6,8,10-triazatricyclo[9.4.0.0^2,7]pentadeca-1(11),2(7),3,5,12,14-hexaene-13-carbonitrile] | < 0.1
CCN1C(=O)N(c2c(F)cc(NCCN)cc2F)c2cc(C#N)ccc2-c2cc(Cl)cnc21 [1-126, 10-{4-[(2-aminoethyl)amino]-2,6-difluorophenyl}-4-chloro-8-ethyl-9-oxo-6,8,10-triazatricyclo[9.4.0.0^2,7]pentadeca-1(11),2(7),3,5,12,14-hexaene-13-carbonitrile] | < 0.1
CCN1C(=O)N(c2c(F)cc(NCCNCCNC)cc2F)c2cc(C#N)ccc2-c2cc(Cl)cnc21 [1-127, 4-chloro-10-{2,6-difluoro-4-[(2-{[2-(methylamino)ethyl]amino}ethyl)amino]phenyl}-8-ethyl-9-oxo-6,8,10-triazatricyclo[9.4.0.0^2,7]pentadeca-1(11),2(7),3,5,12,14-hexaene-13-carbonitrile] | < 0.1

Source: patent US20230159532A1, “PARATHYROID HORMONE (PTH) RECEPTOR ANTAGONISTS AND USES THEREOF” (Crinetics Pharmaceuticals, Inc., priority 2021, published 2023)
